Assay results published in the supplement of paper PMC10307832.

Experiments:
Assay in all cases: relative viability (nuclei count vs DMSO), 5 days (fraction); higher = more cells survive
[1] = compound: CC(C)C[C@H](NC(=O)[C@H](CCc1ccccc1)NC(=O)CN1CCOCC1)C(=O)N[C@@H](Cc1ccccc1)C(=O)N[C@@H](CC(C)C)C(=O)[C@@]1(C)CO1 [Carfilzomib] + Cc1nc(NC(=O)N2CCC[C@H]2C(N)=O)sc1-c1ccnc(C(C)(C)C(F)(F)F)c1 [Alpelisib] (partner 2 µM)
Method in brief: (§1)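 Relative viability equals treated-well nuclei counts divided by vehicle-well nuclei counts. Counts came from 4× images of lung cancer cell lines grown in 1536-well plates for 5 days after pin-tool dosing on the day after seeding. Dosing used one drug alone or a fixed anchor-drug dose plus five library-drug doses (not always all listed) in √10 steps, and values are medians of duplicate plates.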

[2] = compound: C[C@@H](Oc1cc(-c2cnn(C3CCNCC3)c2)cnc1N)c1c(Cl)ccc(F)c1Cl [Crizotinib] + COc1cc2c(Oc3ccc(NC(=O)C4(C(=O)Nc5ccc(F)cc5)CC4)cc3F)ccnc2cc1OCCCN1CCOCC1 [Foretinib] (partner 0.25 µM)
Method in brief: as §1

[3] = compound: C[C@@H](Oc1cc(-c2cnn(C3CCNCC3)c2)cnc1N)c1c(Cl)ccc(F)c1Cl [Crizotinib] + Cc1nc(NC(=O)N2CCC[C@H]2C(N)=O)sc1-c1ccnc(C(C)(C)C(F)(F)F)c1 [Alpelisib] (partner 2 µM)
Method in brief: as §1

[4] = compound: O=C(c1cc(Cc2n[nH]c(=O)c3ccccc23)ccc1F)N1CCN(C(=O)C2CC2)CC1 [Olaparib] + CS(=O)(=O)N1CCN(Cc2cc3nc(-c4cccc5[nH]ncc45)nc(N4CCOCC4)c3s2)CC1 [Pictilisib] (partner 1 µM)
Method in brief: as §1

Row | Cell Line | relative viability ([1]; first compound 0.001 µM) | relative viability ([1]; first compound 0.003162 µM) | relative viability ([1]; first compound 0.01 µM) | relative viability ([1]; first compound 0.03162 µM) | relative viability ([1]; first compound 0.1 µM) | relative viability ([2]; first compound 0.01 µM) | relative viability ([2]; first compound 0.03162 µM) | relative viability ([2]; first compound 0.1 µM) | relative viability ([2]; first compound 1 µM) | relative viability ([3]; first compound 0.01 µM) | relative viability ([3]; first compound 0.03162 µM) | relative viability ([3]; first compound 0.1 µM) | relative viability ([3]; first compound 1 µM) | relative viability ([4]; first compound 0.08 µM) | relative viability ([4]; first compound 0.253 µM) | relative viability ([4]; first compound 2.53 µM) | relative viability ([4]; first compound 8 µM) | relative viability ([2]; first compound 0.3162 µM) | relative viability ([3]; first compound 0.3162 µM)
1 | NCI-H1734 | 0.695 | 0.832 | 0.69 | 0.367 | 0.165 | 0.811 | 0.847 | 0.753 | 0.805 | 0.659 | 0.646 | 0.661 | 0.633 | 0.469 | 0.471 | 0.419 | 0.336 |  | 
2 | NCI-H1755 | 0.917 | 0.948 | 0.925 | 0.601 | 0.202 | 0.835 | 0.923 | 0.887 | 0.891 | 0.899 | 0.844 | 0.938 | 0.959 | 0.553 | 0.383 | 0.405 | 0.338 | 0.877 | 0.902
3 | NCI-H1915 | 1.05 | 1.1 | 1.04 | 0.689 | 0.0648 | 1 | 1.1 | 1.07 | 1.08 | 1.08 | 1.08 | 1.14 | 1.09 | 0.928 | 0.845 | 0.746 | 0.473 |  | 
4 | NCI-H1944 | 0.776 | 0.877 | 0.776 | 0.938 | 0.304 | 0.823 | 0.877 | 0.847 | 0.862 | 0.787 |  | 0.804 | 0.861 | 0.363 | 0.319 | 0.328 | 0.351 | 0.884 | 0.808
5 | NCI-H1975 | 0.584 | 0.646 | 0.281 | 0.117 | 0.126 | 0.941 | 1.03 | 0.902 | 0.975 | 0.682 | 0.683 | 0.673 | 0.68 | 0.309 | 0.27 | 0.284 | 0.266 | 0.962 | 0.689
6 | NCI-H1993 | 0.717 | 0.654 | 0.765 | 0.521 | 0.483 | 0.848 | 0.9 | 0.741 | 0.82 | 0.669 | 0.625 | 0.652 | 0.737 | 0.827 | 0.839 | 0.719 | 0.869 | 0.827 | 0.715
7 | NCI-H2009 | 1.24 | 1.21 | 1.21 | 0.959 | 0.0547 | 1.21 | 1.17 | 1.13 | 1.23 | 1.16 | 1.16 |  | 1.09 | 0.996 | 0.71 | 0.693 | 0.475 | 1.19 | 1.12
8 | NCI-H2023 | 0.605 | 0.539 | 0.732 | 0.488 | 0.0793 | 0.745 | 0.799 | 0.787 | 0.939 | 0.523 | 0.611 | 0.637 | 0.499 | 0.286 | 0.195 | 0.245 | 0.275 | 0.848 | 0.503
9 | NCI-H2085 | 0.978 | 1.1 | 0.908 | 0.43 | 0.282 | 0.822 | 0.809 | 0.906 | 0.987 | 0.954 | 1.02 |  | 0.954 | 0.468 | 0.433 | 0.427 | 0.368 |  | 1.05
10 | NCI-H2087 | 1.13 | 1.25 | 0.83 | 0.0689 | 0.0648 | 1.12 | 1.12 | 1.03 | 1.24 | 1.02 |  |  | 1.21 | 0.967 | 0.797 | 0.8 | 0.508 |  | 
11 | NCI-H2126 | 0.683 | 0.787 | 0.792 | 0.774 | 0.563 | 1.03 | 1.18 | 1.12 | 1.18 | 0.719 | 0.782 | 0.714 | 0.79 | 0.544 | 0.504 | 0.513 | 0.556 | 1.1 | 0.708
12 | NCI-H2170 | 0.801 | 0.775 | 0.875 | 0.659 | 0.24 | 0.965 | 0.991 | 0.999 | 1.01 | 0.804 | 0.779 | 0.74 | 0.904 | 0.346 | 0.277 | 0.305 | 0.332 | 1.02 | 0.709
13 | NCI-H2228 | 0.662 | 0.73 | 0.49 | 0.108 | 0.156 | 0.872 | 0.997 | 0.699 | 0.434 | 0.666 | 0.799 | 0.769 | 0.288 | 0.429 | 0.418 | 0.292 | 0.336 | 0.81 | 0.451
14 | NCI-H2347 | 0.96 | 1.18 | 1.05 | 0.875 | 0.345 | 0.689 | 0.918 | 1.03 | 1.06 | 1.04 | 1.03 | 1.03 | 0.996 | 1.28 | 0.557 | 0.683 | 0.547 | 0.656 | 0.978
15 | NCI-H2405 |  | 1.13 | 0.777 | 0.312 | 0.168 | 1.02 | 1.06 | 1.05 | 1.06 | 0.74 | 0.762 | 0.69 | 0.857 | 0.524 | 0.406 | 0.426 | 0.469 | 1.09 | 0.818
16 | NCI-H3122 | 0.748 | 0.847 | 0.748 | 0.959 | 0.69 | 0.94 | 0.925 | 0.978 | 0.924 | 0.729 | 0.667 | 0.857 | 0.796 | 0.629 | 0.532 | 0.587 | 0.627 | 0.873 | 0.867
17 | PC-3 [JPC-3] | 1.07 | 1.08 | 1.02 | 0.824 | 0.257 | 0.969 | 1.05 | 1.01 | 0.986 | 0.959 | 1.04 | 1.05 | 1.07 | 0.857 | 0.592 | 0.712 | 0.673 | 0.992 | 0.998
